This note sets out measurements from BindingDB's records for doi:10.1021/jm00006a025 (Chungnam National University, 1995).

SMILES strings stand for the structures.

This test concerns the target T1, DNA topoisomerase 1 (Homo sapiens, UniProt P11387).
T1 sequence (P11387 whole entry): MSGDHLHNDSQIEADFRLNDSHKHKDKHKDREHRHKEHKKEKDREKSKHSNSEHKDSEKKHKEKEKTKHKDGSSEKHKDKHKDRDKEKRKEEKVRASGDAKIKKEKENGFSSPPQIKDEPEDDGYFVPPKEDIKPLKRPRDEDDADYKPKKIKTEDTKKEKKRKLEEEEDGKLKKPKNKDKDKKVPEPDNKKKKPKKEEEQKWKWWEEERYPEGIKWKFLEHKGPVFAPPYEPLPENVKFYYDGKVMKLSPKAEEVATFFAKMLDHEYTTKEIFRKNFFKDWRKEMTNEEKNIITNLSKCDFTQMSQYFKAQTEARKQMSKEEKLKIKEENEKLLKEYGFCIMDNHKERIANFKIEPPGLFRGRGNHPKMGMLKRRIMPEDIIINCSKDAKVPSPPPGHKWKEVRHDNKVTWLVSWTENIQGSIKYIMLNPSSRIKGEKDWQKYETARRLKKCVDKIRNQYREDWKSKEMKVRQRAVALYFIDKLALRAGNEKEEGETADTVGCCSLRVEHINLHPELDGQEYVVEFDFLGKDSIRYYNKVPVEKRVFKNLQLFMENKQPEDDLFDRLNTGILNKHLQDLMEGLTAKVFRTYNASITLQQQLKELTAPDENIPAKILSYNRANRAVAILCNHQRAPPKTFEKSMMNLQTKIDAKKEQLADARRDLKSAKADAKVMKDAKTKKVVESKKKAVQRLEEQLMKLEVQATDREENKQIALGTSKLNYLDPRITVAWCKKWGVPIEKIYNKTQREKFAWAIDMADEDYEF
Nature of the test: Inhibitory activity against DNA topoisomerase-1 obtained from Hela cells.
Turning to `CC(C)=CC=C(OC(=O)C(c1ccccc1)c1ccccc1)c1cc(O)c2c(O)ccc(O)c2c1O`, the concentration for half-maximal inhibition (IC50) was > 625 µM. Regarding `CC(C)=CC=C(OC(=O)C=C(C)C=CC=C(C)/C=C/C1=C(C)CCCC1(C)C)c1cc(O)c2c(O)ccc(O)c2c1O` [(2Z,4E,6E,8E)-3,7-Dimethyl-9-(2,6,6-trimethyl-cyclohex-1-enyl)-nona-2,4,6,8-tetraenoic acid (R)-1-(5,8-dihydroxy-1,4-dioxo-1,4-dihydro-naphthalen-2-yl)-4-methyl-pent-3-enyl ester], the IC50 is > 625 µM. `CCCCC/C=C/C/C=C/C/C=C/CCCCC(=O)OC(=CC=C(C)C)c1cc(O)c2c(O)ccc(O)c2c1O` [(6E,9E,12E)-Octadeca-6,9,12-trienoic acid (R)-1-(5,8-dihydroxy-1,4-dioxo-1,4-dihydro-naphthalen-2-yl)-4-methyl-pent-3-enyl ester]: the IC50 is > 625 µM. For the molecule `CCCCC/C=C/C/C=C/CCCCCCCC(=O)OC(=CC=C(C)C)c1cc(O)c2c(O)ccc(O)c2c1O` [(9E,12E)-Octadeca-9,12-dienoic acid (R)-1-(5,8-dihydroxy-1,4-dioxo-1,4-dihydro-naphthalen-2-yl)-4-methyl-pent-3-enyl ester], the IC50 is > 625 µM. In turn, `CCC/C=C/C(=O)OC(=CC=C(C)C)c1cc(O)c2c(O)ccc(O)c2c1O` [(E)-Hex-2-enoic acid (R)-1-(5,8-dihydroxy-1,4-dioxo-1,4-dihydro-naphthalen-2-yl)-4-methyl-pent-3-enyl ester] displayed an IC50 of 153 µM. Turning to `CC/C=C/CC(=O)OC(=CC=C(C)C)c1cc(O)c2c(O)ccc(O)c2c1O` [(E)-Hex-3-enoic acid (R)-1-(5,8-dihydroxy-1,4-dioxo-1,4-dihydro-naphthalen-2-yl)-4-methyl-pent-3-enyl ester], the IC50 worked out at 153 µM. As for `CCCCCCCC/C=C/CCCCCCCC(=O)OC(=CC=C(C)C)c1cc(O)c2c(O)ccc(O)c2c1O` [(E)-Octadec-9-enoic acid (R)-1-(5,8-dihydroxy-1,4-dioxo-1,4-dihydro-naphthalen-2-yl)-4-methyl-pent-3-enyl ester], the IC50 is > 625 µM.

In turn, `CC(C)=CC=C(OC(=O)c1ccccc1)c1cc(O)c2c(O)ccc(O)c2c1O` [(R)-1-(5,8-dihydroxy-1,4-dioxo-1,4-dihydronaphthalen-2-yl)-4-methylpent-3-enyl benzoate] showed an IC50 of 153 µM. With `CCCCCCCCCC(=O)OC(=CC=C(C)C)c1cc(O)c2c(O)ccc(O)c2c1O` [Decanoic acid (R)-1-(5,8-dihydroxy-1,4-dioxo-1,4-dihydro-naphthalen-2-yl)-4-methyl-pent-3-enyl ester], the IC50 is > 625 µM. For the molecule `CCCCCCCCCCCC(=O)OC(=CC=C(C)C)c1cc(O)c2c(O)ccc(O)c2c1O` [Dodecanoic acid (R)-1-(5,8-dihydroxy-1,4-dioxo-1,4-dihydro-naphthalen-2-yl)-4-methyl-pent-3-enyl ester], the IC50 is > 625 µM. For the molecule `CCCCCCCCCCCCCCCC(=O)OC(=CC=C(C)C)c1cc(O)c2c(O)ccc(O)c2c1O` [Hexadecanoic acid (R)-1-(5,8-dihydroxy-1,4-dioxo-1,4-dihydro-naphthalen-2-yl)-4-methyl-pent-3-enyl ester], the IC50 is > 625 µM. With `CCCCCCCCC(=O)OC(=CC=C(C)C)c1cc(O)c2c(O)ccc(O)c2c1O` [Nonanoic acid (R)-1-(5,8-dihydroxy-1,4-dioxo-1,4-dihydro-naphthalen-2-yl)-4-methyl-pent-3-enyl ester], the IC50 is > 625 µM. For `CCCCCCCCCCCCCCCCCC(=O)OC(=CC=C(C)C)c1cc(O)c2c(O)ccc(O)c2c1O` [Octadecanoic acid (R)-1-(5,8-dihydroxy-1,4-dioxo-1,4-dihydro-naphthalen-2-yl)-4-methyl-pent-3-enyl ester], the IC50 was > 625 µM.

Consider `CCCCCCCC(=O)OC(=CC=C(C)C)c1cc(O)c2c(O)ccc(O)c2c1O` [Octanoic acid (R)-1-(5,8-dihydroxy-1,4-dioxo-1,4-dihydro-naphthalen-2-yl)-4-methyl-pent-3-enyl ester], for which the IC50 is > 625 µM.
